Laboratory results reported in PubChem BioAssay AID256 (DTP/NCI, 2004).
Where “and” joins values, the source holds several entries; their conditions need not be identical. Equal values may be shown once. Toxic doses and inconclusive results are not listed.

System: CD2F1 mice, L1210 leukemia ip, survival T/C
Assay: NCI In Vivo Anticancer Drug Screen. Data for tumor model L1210 Leukemia (intraperitoneal) in CD2F1 (CDF1) mice
Settings: higher = longer survival
Procedure, shortened: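 Ratio T/C, where T is the treated-group value and C the vehicle-dosed control value, from mice implanted with a transplantable tumor.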

For `CCCCCCCCCc1ccc(OCCOCCOCCOCCOCCOCCOCCCS(=O)(=O)[O-])cc1.CCCCCCCCCc1ccc(OCCOCCOCCOCCOCCOCCOCCCS(=O)(=O)[O-])cc1.NC1CCCCC1N.[Pt+4]`, the T/C (endpoint: median survival time, dose: 3.12 mg/kg/injection, schedule: Q04DX003 (ip), vehicle: saline with Tween-80) was 98 % of control, the T/C (endpoint: median survival time, dose: 6.25 mg/kg/injection, schedule: Q04DX003 (ip), vehicle: saline with Tween-80) was 98 % of control and the T/C (endpoint: median survival time, dose: 12.5 mg/kg/injection, schedule: Q04DX003 (ip), vehicle: saline with Tween-80) was 98 % of control. For the same compound, the T/C (endpoint: median survival time, dose: 25.0 mg/kg/injection, schedule: Q04DX003 (ip), vehicle: saline with Tween-80) was 95 % of control, the T/C (endpoint: median survival time, dose: 50.0 mg/kg/injection, schedule: Q04DX003 (ip), vehicle: saline with Tween-80) was 97 % of control and the T/C (endpoint: median survival time, dose: 100.0 mg/kg/injection, schedule: Q04DX003 (ip), vehicle: saline with Tween-80) was 102 % of control. For the same compound, the T/C (endpoint: median survival time, dose: 200.0 mg/kg/injection, schedule: Q04DX003 (ip), vehicle: saline with Tween-80) was 103 % of control.
With `CC[n+]1ccc(Nc2ccc(NC(=O)c3ccc(Nc4cc[n+](CC)c5ccc([N+](=O)[O-])cc45)cc3)cc2)cc1` the T/C (endpoint: mean survival time, dose: 2.0 mg/kg/injection, schedule: Q01DX009 (ip), vehicle: saline sonified) was 105 % of control, the T/C (endpoint: mean survival time, dose: 4.0 mg/kg/injection, schedule: Q01DX009 (ip), vehicle: saline sonified) was 108 % of control and the T/C (endpoint: mean survival time, dose: 8.0 mg/kg/injection, schedule: Q01DX009 (ip), vehicle: saline sonified) was 123 % of control. The T/C (endpoint: mean survival time, dose: 11.0 mg/kg/injection, schedule: Q01DX009 (ip), vehicle: saline) was 119 % of control, the T/C (endpoint: mean survival time, dose: 25.0 mg/kg/injection, schedule: Q01DX009 (ip), vehicle: saline) was 162 % of control and the T/C (endpoint: mean survival time, dose: 37.5 mg/kg/injection, schedule: Q01DX009 (ip), vehicle: saline) was 203 % of control.
In the case of `CC1(C)OCC(C(O)C(O)C(O)CO)O1` (centres undefined), the T/C (endpoint: mean survival time, dose: 50.0 mg/kg/injection, schedule: Q01DX009 (ip), vehicle: saline) is reported as 102 % of control, the T/C (endpoint: mean survival time, dose: 100.0 mg/kg/injection, schedule: Q01DX009 (ip), vehicle: saline) is reported as 98 % of control and the T/C (endpoint: mean survival time, dose: 200.0 mg/kg/injection, schedule: Q01DX009 (ip), vehicle: saline) is reported as 102 % of control.
In the case of `CN(Cc1cnc2nc(N)nc(N)c2n1)c1ccc(C(=O)NC(CCC(N)=O)C(=O)O)cc1` (centres undefined), the T/C (endpoint: mean survival time, dose: 1.0 mg/kg/injection, schedule: Q01DX009 (ip), vehicle: sodium bicarbonate) is reported as 102 % of control, the T/C (endpoint: mean survival time, dose: 10.0 mg/kg/injection, schedule: Q01DX009 (ip), vehicle: sodium bicarbonate) is reported as 118 % of control and the T/C (endpoint: mean survival time, dose: 50.0 mg/kg/injection, schedule: Q01DX009 (ip), vehicle: sodium bicarbonate) is reported as 150 % of control. The T/C (endpoint: mean survival time, dose: 180.0 mg/kg/injection, schedule: Q04DX003 (ip), vehicle: sodium bicarbonate) was 158 % of control, the T/C (endpoint: mean survival time, dose: 268.0 mg/kg/injection, schedule: Q04DX003 (ip), vehicle: sodium bicarbonate) was 114 % of control and the T/C (endpoint: mean survival time, dose: 400.0 mg/kg/injection, schedule: Q04DX003 (ip), vehicle: sodium bicarbonate) was 110 % of control.
In the case of `CSc1ncnc2c1cnn2C1OC(CO)C(O)C1O` (centres undefined), the T/C (endpoint: mean survival time, dose: 12.5 mg/kg/injection, schedule: Q01DX005 (ip), vehicle: other) is reported as 93 % of control, the T/C (endpoint: mean survival time, dose: 25.0 mg/kg/injection, schedule: Q01DX005 (ip), vehicle: other) is reported as 100 % of control and the T/C (endpoint: mean survival time, dose: 50.0 mg/kg/injection, schedule: Q01DX005 (ip), vehicle: other) is reported as 105 % of control. For the same compound, the T/C (endpoint: mean survival time, dose: 100.0 mg/kg/injection, schedule: Q01DX005 (ip), vehicle: other) was 122 % of control and 100 % of control and the T/C (endpoint: mean survival time, dose: 200.0 mg/kg/injection, schedule: Q01DX005 (ip), vehicle: other) was 119 % of control and 112 % of control.
With `O=C(OCC1OC(n2cnc3c(=O)[nH][nH]c(=O)c32)C(OC(=O)c2ccccc2)C1OC(=O)c1ccccc1)c1ccccc1` (centres undefined) the T/C (endpoint: median survival time, dose: 8.25 mg/kg/injection, schedule: Q01DX005 (ip), vehicle: Klucel (hydroxypropylcellulose) (HPC)) was 104 % of control, the T/C (endpoint: median survival time, dose: 16.5 mg/kg/injection, schedule: Q01DX005 (ip), vehicle: Klucel (hydroxypropylcellulose) (HPC)) was 98 % of control and the T/C (endpoint: median survival time, dose: 33.0 mg/kg/injection, schedule: Q01DX005 (ip), vehicle: Klucel (hydroxypropylcellulose) (HPC)) was 97 % of control. The T/C (endpoint: median survival time, dose: 66.0 mg/kg/injection, schedule: Q01DX005 (ip), vehicle: Klucel (hydroxypropylcellulose) (HPC)) was 101 % of control and the T/C (endpoint: median survival time, dose: 132.0 mg/kg/injection, schedule: Q01DX005 (ip), vehicle: Klucel (hydroxypropylcellulose) (HPC)) was 102 % of control.
`c1ccc2c(c1)C1c3cccc[n+]3C2C2C1CC1C3c4ccccc4C(C12)[n+]1ccccc13` (centres undefined) was tested, and the T/C (endpoint: mean survival time, dose: 12.5 mg/kg/injection, schedule: Q04DX003 (ip), vehicle: saline) was 98 % of control.
`N#CC(C#N)=C1CCN2CCCc3cccc1c32` was tested, and the T/C (endpoint: mean survival time, dose: 100.0 mg/kg/injection, schedule: Q01DX001 (ip), vehicle: saline with Tween-80) was 100 % of control, the T/C (endpoint: mean survival time, dose: 200.0 mg/kg/injection, schedule: Q01DX001 (ip), vehicle: saline with Tween-80) was 95 % of control and the T/C (endpoint: mean survival time, dose: 400.0 mg/kg/injection, schedule: Q01DX001 (ip), vehicle: saline with Tween-80) was 111 % of control.
`Cc1cc[n+](CC(=O)CCc2ccc(C(=O)C[n+]3ccc(C)cc3)cc2)cc1` was tested, and the T/C (endpoint: mean survival time, dose: 1.5 mg/kg/injection, schedule: Q04DX003 (ip), vehicle: saline) was 100 % of control, the T/C (endpoint: mean survival time, dose: 3.0 mg/kg/injection, schedule: Q04DX003 (ip), vehicle: saline) was 103 % of control and the T/C (endpoint: mean survival time, dose: 6.0 mg/kg/injection, schedule: Q04DX003 (ip), vehicle: saline) was 95 % of control.
